Measurements: PubChem BioAssay (NCI)
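How tested: cells in 96-well plates exposed to compound for 48 hours at five concentrations. GI50 marks 50% less growth. The concentration for full growth arrest is given as TGI.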

What was measured:
Test in all cases: growth of human tumour cells (NCI), 48 h
HOP-62 NSCLC = test system: HOP-62 NSCLC
NCI/ADR-RES ovarian = test system: NCI/ADR-RES ovarian
RXF 393 renal = test system: RXF 393 renal
NCI-H23 lung = test system: NCI-H23 lung
CAKI-1 renal = test system: CAKI-1 renal
A498 renal = test system: A498 renal
EKVX NSCLC = test system: EKVX NSCLC
HCT-15 colon = test system: HCT-15 colon
A549 NSCLC = test system: A549 NSCLC
SR leukemia = test system: SR leukemia

SMILES | GI50 (HOP-62 NSCLC) | TGI (HOP-62 NSCLC) | GI50 (NCI/ADR-RES ovarian) | TGI (NCI/ADR-RES ovarian) | GI50 (RXF 393 renal) | TGI (RXF 393 renal) | GI50 (NCI-H23 lung) | TGI (NCI-H23 lung) | GI50 (CAKI-1 renal) | TGI (CAKI-1 renal) | GI50 (A498 renal) | TGI (A498 renal) | GI50 (EKVX NSCLC) | TGI (EKVX NSCLC) | GI50 (HCT-15 colon) | TGI (HCT-15 colon) | GI50 (A549 NSCLC) | TGI (A549 NSCLC) | TGI (SR leukemia) | GI50 (SR leukemia)
FC(F)(F)c1ccc(C#Cc2ccccc2C#Cc2ccccc2)cc1 | 52.5 µM | > 100 µM | 62.8 µM | > 100 µM | 23.4 µM | 65.6 µM | 49 µM | > 100 µM | 46.1 µM | > 100 µM | 29.3 µM | 83.4 µM | 33.6 µM | > 100 µM | 35.1 µM | > 100 µM | 49.9 µM | > 100 µM |  | 
O=[N+]([O-])c1cc(C2SCc3nc4ccccc4n32)ccc1Cl (stereo not given) |  |  |  |  |  | 79 µM |  | 78.1 µM |  | > 100 µM |  | 69.6 µM |  | > 100 µM |  |  |  | > 100 µM | > 100 µM | 
C=C1C(=O)OC2C=C(CCC(C)=O)C(C)C(OC(C)=O)CC12 (stereo not given) |  |  |  |  |  | 5.42 µM |  |  |  | 23.6 µM |  | 30.1 µM |  | 26 µM |  | 20.1 µM |  | 55.4 µM | 52.9 µM | 
Fc1ccccc1C1SCc2nc3ccccc3n21 (stereo not given) |  |  |  |  |  | > 100 µM |  | > 100 µM |  | > 100 µM |  | > 100 µM |  | > 100 µM |  |  |  | > 100 µM | > 100 µM | 
c1ccc2cc3[s+]snc3cc2c1 |  | > 100 µM |  |  |  | > 100 µM |  | > 100 µM |  | > 100 µM |  | > 100 µM |  | > 100 µM |  | > 100 µM |  | > 100 µM | > 100 µM | 
O=c1[nH]c(=O)c2cc(C3CC(O)C(CO)O3)ccc2[nH]1 (stereo not given) | > 100 µM | > 100 µM | > 100 µM | > 100 µM | > 100 µM | > 100 µM | > 100 µM | > 100 µM | > 100 µM | > 100 µM | > 100 µM | > 100 µM | > 100 µM | > 100 µM | 93.3 µM | > 100 µM | > 100 µM | > 100 µM |  | 
O=C(c1ccccc1)[C@@H]1C[C@H](Sc2ccccc2)c2cc(Cl)ccc2N1 |  | > 100 µM |  |  |  | 26.5 µM |  | 64.2 µM |  | > 100 µM |  | 48.1 µM |  | 50.3 µM |  | > 100 µM |  | > 100 µM | > 100 µM | 
CCCCCCCCCCCCOC1C(C(COC2OC(C3COC(C)(C)O3)C3OC(C)(C)OC23)NC(=O)NS(=O)(=O)c2ccccc2)OC2OC(C)(C)OC21 (stereo not given) | 4.34 µM | 14.5 µM | 7.18 µM | 23.6 µM | 3.02 µM | 7.47 µM | 4.34 µM | 19.3 µM | 7.14 µM | 20 µM | 3.87 µM | 11.9 µM | 3.89 µM | 16.8 µM | 3.68 µM | 15 µM | 4.58 µM | 27.3 µM |  | 
C[N+]1(C)C/C(=C\c2ccccc2)C(=O)/C(=C/c2ccccc2)C1 |  | > 100 µM |  |  |  | > 100 µM |  | > 100 µM |  |  |  | > 100 µM |  |  |  | > 100 µM |  | > 100 µM | > 100 µM | 
O=Cc1ccccc1B(O)O |  | > 100 µM |  | > 100 µM |  | > 100 µM |  |  |  | > 100 µM |  |  |  |  |  | > 100 µM |  | 38.5 µM | 2.08 µM | 
Cc1cc(NS(=O)(=O)c2ccc(NC(=O)c3ccc(Cl)c4c(Nc5ccc(S(=O)(=O)N=C(N)N)cc5)c5ccccc5nc34)cc2)no1 |  | 97.7 µM |  |  |  | 48.6 µM |  | > 100 µM |  |  |  | > 100 µM |  | > 100 µM |  | > 100 µM |  |  | 67.9 µM | 
CN1CC[C@]2(C)c3cc(O)ccc3CC3CCCC1C32C (stereo not given in full) |  | > 100 µM |  |  |  | > 100 µM |  | > 100 µM |  | > 100 µM |  | > 100 µM |  | > 100 µM |  | > 100 µM |  | > 100 µM | > 100 µM | 
COc1cc(C(O)C(=O)c2nc3ccc([N+](=O)[O-])cc3[nH]c2=O)ccc1O (stereo not given) |  | > 100 µM |  |  |  |  |  | > 100 µM |  | > 100 µM |  | 97 µM |  | > 100 µM |  | > 100 µM |  | > 100 µM | > 100 µM | 
Cc1ccc(NC(=O)C(=O)CC(=O)c2c(C)n([O-])c3ccccc3[n+]2=O)cc1 |  | > 100 µM |  |  |  | > 100 µM |  | 56.6 µM |  | > 100 µM |  | > 100 µM |  | 40.9 µM |  | 89.4 µM |  | 87.3 µM | 49.8 µM | 
O=C1C2C=CC(C2)C(c2ccc(O)cc2)N1O (stereo not given) |  | > 100 µM |  |  |  |  |  | > 100 µM |  | > 100 µM |  | > 100 µM |  | > 100 µM |  |  |  | > 100 µM | > 100 µM | 
COc1ccc(/C(=N\O)c2cc(C)c(OC)c(C)c2)cc1O | 0.0215 µM | > 100 µM | < 0.01 µM | > 100 µM | < 0.01 µM | > 100 µM | 0.0314 µM | > 100 µM |  |  |  |  | 0.0613 µM | > 100 µM | < 0.01 µM | > 100 µM | 0.039 µM | > 100 µM | > 100 µM | < 0.01 µM
CC(C)(CN1CCCCC1)C(=O)/C=C/c1ccc(Cl)cc1 |  |  |  |  |  | 13.8 µM |  | 6.76 µM |  |  |  | 10.8 µM |  | 10 µM |  | 9.85 µM |  | 14.4 µM | 7.15 µM | 
Cc1ccc2nc(-c3ccccc3)c(N=O)n2c1 |  | > 100 µM |  | > 100 µM |  | > 100 µM |  | > 100 µM |  | > 100 µM |  | > 100 µM |  | 79.5 µM |  | > 100 µM |  | > 100 µM |  | 
O=S(=O)(c1cccc2c(Cl)cccc12)N1CCCNCC1 | 11.2 µM | 23.3 µM | 13.7 µM | 26.6 µM | 2.88 µM | 22.4 µM | 13.8 µM | 27.1 µM | 17.3 µM | 32.6 µM | 17.9 µM | 32.5 µM | 19.9 µM | 35.9 µM | 14.5 µM | 27.5 µM | 14 µM | 28.2 µM |  | 
O=c1nc(NC(c2ccccc2)(c2ccccc2)c2ccccc2)ccn1CCNCCn1ccc(NC(c2ccccc2)(c2ccccc2)c2ccccc2)nc1=O |  | 32.5 µM |  |  |  | 25.6 µM |  | 26.8 µM |  | > 100 µM |  | 78 µM |  | 63.6 µM |  | > 100 µM |  | > 100 µM |  | 
